The source of these data is patent US12534742B2, “Compound for regulating gene editing efficiency and application thereof” (Shanghai Institute of Organic Chemistry, Chinese Academy of …, priority 2018, dated 2026).

Several values for one entry are separate records, joined by “and”; a condition that tells them apart may be missing. Identical values can stand only once.

In data set [1] the target is CRISPR/Cas9 from Streptococcus pyogenes (SpyCas9) (Streptococcus pyogenes serotype M1, UniProt Q99ZW2). Kind of data set: cell-based.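 Also: Cell-based reporter with a SpyCas9 target site placed in EGFP, where NHEJ repair of the cut restores the reading frame, read-out is the share of EGFP-positive cells, lowered by inhibitors.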
CRISPR/Cas9 from Streptococcus pyogenes (SpyCas9), sequence (Q99ZW2 whole entry): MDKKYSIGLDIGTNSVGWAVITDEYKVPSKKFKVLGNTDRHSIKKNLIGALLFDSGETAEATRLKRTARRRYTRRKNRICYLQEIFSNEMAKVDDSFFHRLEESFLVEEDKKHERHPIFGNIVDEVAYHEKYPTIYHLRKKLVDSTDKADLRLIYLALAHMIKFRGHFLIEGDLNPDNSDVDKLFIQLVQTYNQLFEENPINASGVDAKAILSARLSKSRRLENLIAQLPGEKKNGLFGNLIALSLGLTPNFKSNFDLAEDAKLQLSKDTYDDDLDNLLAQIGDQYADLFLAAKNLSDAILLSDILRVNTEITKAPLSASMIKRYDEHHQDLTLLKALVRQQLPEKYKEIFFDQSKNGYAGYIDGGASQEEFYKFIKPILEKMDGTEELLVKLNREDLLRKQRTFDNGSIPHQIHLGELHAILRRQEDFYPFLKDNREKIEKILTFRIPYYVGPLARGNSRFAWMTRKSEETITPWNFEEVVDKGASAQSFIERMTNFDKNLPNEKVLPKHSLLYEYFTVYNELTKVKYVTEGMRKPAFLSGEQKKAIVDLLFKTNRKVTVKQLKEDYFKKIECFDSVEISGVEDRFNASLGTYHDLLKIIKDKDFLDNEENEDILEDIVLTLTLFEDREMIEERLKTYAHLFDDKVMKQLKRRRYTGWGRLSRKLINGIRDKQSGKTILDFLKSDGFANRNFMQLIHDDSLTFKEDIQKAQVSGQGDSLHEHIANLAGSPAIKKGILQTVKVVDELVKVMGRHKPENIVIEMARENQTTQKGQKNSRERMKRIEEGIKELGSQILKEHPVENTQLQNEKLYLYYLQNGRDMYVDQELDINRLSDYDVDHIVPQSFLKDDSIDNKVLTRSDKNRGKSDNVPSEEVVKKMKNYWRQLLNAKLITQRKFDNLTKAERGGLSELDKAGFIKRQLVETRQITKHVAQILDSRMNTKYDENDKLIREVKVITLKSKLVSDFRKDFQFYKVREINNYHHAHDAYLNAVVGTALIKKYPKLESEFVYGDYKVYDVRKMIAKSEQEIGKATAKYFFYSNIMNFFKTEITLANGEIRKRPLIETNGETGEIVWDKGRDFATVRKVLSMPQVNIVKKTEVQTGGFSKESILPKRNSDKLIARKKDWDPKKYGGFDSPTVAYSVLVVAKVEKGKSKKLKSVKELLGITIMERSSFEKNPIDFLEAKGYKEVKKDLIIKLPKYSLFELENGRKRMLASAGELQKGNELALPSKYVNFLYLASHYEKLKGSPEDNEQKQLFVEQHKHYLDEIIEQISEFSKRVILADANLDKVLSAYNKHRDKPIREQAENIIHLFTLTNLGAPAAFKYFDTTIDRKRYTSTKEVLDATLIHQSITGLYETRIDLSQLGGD
From the text: The CRISPR/Cas9 recognition site was inserted into the EGFP coding sequence so that the downstream sequence of the CRISPR/Cas9 recognition site was inside the box. The EGFP sequence was cleaved by Cas9 to produce double-strand breaks (DSBs), which would repair one of the two DNA repair mechanisms in the cell: non-homologous end joining (NHEJ) or homologous directed repair (HDR). The insertion or deletion introduced by NHEJ would restore the open reading frame of EGFP, thus activating EGFP fluorescence (FIG. 1).
In data set [2] the target is T1, Staphylococcus aureus Cas9 (SaCas9) (Staphylococcus aureus, UniProt J7RUA5).
T1 construct: expressed in transfected cells; host or cells: HEK293 (method similar to 2.1)
T1 sequence (J7RUA5 whole entry): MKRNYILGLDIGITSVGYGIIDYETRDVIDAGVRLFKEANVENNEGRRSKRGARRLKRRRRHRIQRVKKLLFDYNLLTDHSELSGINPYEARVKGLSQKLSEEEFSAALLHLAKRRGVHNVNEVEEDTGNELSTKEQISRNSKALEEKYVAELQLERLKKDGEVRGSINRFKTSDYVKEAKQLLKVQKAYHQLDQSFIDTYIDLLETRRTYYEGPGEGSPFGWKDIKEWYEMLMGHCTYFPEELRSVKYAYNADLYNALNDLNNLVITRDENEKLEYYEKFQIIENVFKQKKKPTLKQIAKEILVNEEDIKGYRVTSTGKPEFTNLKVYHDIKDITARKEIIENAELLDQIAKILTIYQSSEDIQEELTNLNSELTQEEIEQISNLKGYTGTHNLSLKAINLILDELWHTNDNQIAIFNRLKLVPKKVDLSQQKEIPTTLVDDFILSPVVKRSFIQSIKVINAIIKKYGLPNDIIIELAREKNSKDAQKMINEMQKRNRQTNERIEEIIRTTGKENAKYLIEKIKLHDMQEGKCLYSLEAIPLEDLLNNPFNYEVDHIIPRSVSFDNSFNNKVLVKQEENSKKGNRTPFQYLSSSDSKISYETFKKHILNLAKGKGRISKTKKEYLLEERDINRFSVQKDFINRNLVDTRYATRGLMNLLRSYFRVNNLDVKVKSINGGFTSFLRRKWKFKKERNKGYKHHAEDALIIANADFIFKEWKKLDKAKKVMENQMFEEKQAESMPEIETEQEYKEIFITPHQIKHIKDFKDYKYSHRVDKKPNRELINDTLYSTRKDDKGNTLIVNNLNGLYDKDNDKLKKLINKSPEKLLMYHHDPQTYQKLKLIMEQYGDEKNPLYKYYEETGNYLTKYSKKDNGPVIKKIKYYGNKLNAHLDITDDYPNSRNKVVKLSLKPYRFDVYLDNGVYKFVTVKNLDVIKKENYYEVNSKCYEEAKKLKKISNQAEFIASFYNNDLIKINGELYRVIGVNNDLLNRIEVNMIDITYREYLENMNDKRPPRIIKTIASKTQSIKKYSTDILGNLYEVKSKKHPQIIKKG
Kind of data set: Inhibition of plasmid-expressed SaCas9 gene editing in cell culture, T7E1 test. In kind it is cell-based. The following applies: plasmid containing SaCas9; group without drug 14%. As for the experimental part: (§1) HEK293 cells (10^5 cells/well) were seeded on a 24-well plate. 24 hours after inoculation, cells were transfected with 200 ng AAVS1-AS2 and 200 ng pST-Cas9 plasmid or 200 ng EMX1 and 200 ng pST-Cas9 plasmid in Opti-MEM medium. 6 hours after transfection, DMEM supplemented with 10% FBS and 10 μM drug (Compound 49) was used to replace Opti-MEM. The positive control for Cas9 activity was 200 ng AAVS1-AS2 and 200 ng pST-Cas9 plasmid or 200 ng EMX1 and 200 ng pST-Cas9 plasmid without drug. After the gene editing was completed, the cell genomic DNA was extracted, and the gene editing efficiency was tested by the T7E1 method (see Guschin, D. Y. et al. Methods Mol. Biol. 649, 247-256 (2010))).
The method of this example was similar to 2.1, except that pST-Cas9 was replaced with a plasmid containing SaCas9. The detection method was the same as in Example 2.

The target of data set [3] is T2, SpyCas9 (Streptococcus pyogenes serotype M1, UniProt Q99ZW2).
T2 construct: expressed in transfected cells; host or cells: HEK293
T2 sequence (Q99ZW2 whole entry): as the sequence (Q99ZW2 whole entry) above
The data set is described as follows: Inhibition of plasmid-expressed SpyCas9 editing of endogenous genes in HEK293 cells, T7E1 test. In kind it is cell-based. Particulars: 10 μM compound. As for the experimental part: as §1
The method of this example was the same as in Example 2.

Data set [4] relates to base editing system. The data set is described as follows: Regulation of base editing in HEK293T cells, deep sequencing. The data set is classed as cell-based.
For data set [5] the following is noted: humans; cited from earlier work.
Data set [6] has as its target T2, SpyCas9. The data set is described as follows: Specificity of SpyCas9-based gene editing (targeted/off-target editing), T7E1 test. In kind it is cell-based. Particulars: HEK293 cells. Here is the method:
as §1
SpyCas9 was lipid transfected into HEK293 cells or nuclear transfected into K562 cells to determine the effect of compound 49 on the specificity of SpyCas9 in multiple cell lines on different genes. The inhibitor was added to the culture 6 hours after transfection. The detection method is the same as in Example 2.

Where [7] appears, read: HEK293 cells transfected with AAVS1-AS2 and pST-Cas9 plasmids, no-drug group 22.4% and 35.1%.
Where [8] appears, read: HEK293 cells transfected with EMX1 and pST-Cas9 plasmids, no-drug group 26.5% and 27.9%.

As usually defined, the IC50 is the concentration at which inhibition is half-maximal. In the case of `O=C(/C=C\n1cnc(-c2cc(C(F)(F)F)cc(C(F)(F)F)c2)n1)NNc1cnccn1` [Compound 49], the IC50 in data set [1] was < 1000 nM. Besides, the gene modification rate is < 0.5% in data set [2]; < 1% in data set [3] (setting [7]); 5.6% and 3.8% in data set [3] (setting [8]). Moreover, the “decrease rate of C→T conversion frequency” value in data set [4] (sg47, C on 5th site, 500 nM compound) is on record as 50%. The molecule also registered a C→T conversion frequency in data set [4] (sg47, C on 5th site, 500 nM compound, 18% without compound) of 9%. Moreover, in data set [4] (sg48, 500 nM compound), the indel frequency result is “reduced overall”. Besides, the “C→T conversion inhibition efficiency” value was determined as 30% in data set [4] (sgMSSK1-5, C on 5th site in the window, 500 nM compound) and 50% in data set [4] (sgMSSK1-5, C on 11th site out-of-window, 500 nM compound). For the same molecule, the “safety in clinical testing” value in data set [5] is on record as “safe for humans”. Besides, in data set [6] (after compound added, 2.4 when no compound was added), the “ratio of the number of scheduled gene editing at specific sites to the number of scheduled gene editing at non-specific sites” value is 7. Further, the “raise of the specific/non-specific site editing ratio” value in data set [6] (with compound versus no compound) is recorded as 2.9 fold.
For `CC1=CC(=O)c2c(O)cccc2C1=O` [Compound 48], the IC50 in data set [1] lay within 1000 to 10000 nM. Moreover, the gene modification rate in data set [3] (setting [7]) and in data set [3] (setting [8]) was 0% in each case.
